According to patent US6525017B1, “Using glutathiane to protect neurons from injury” (The Children's Medical Center Corporation, priority 1989, dated 2003):

Assays:
NMDA receptor = test: NMDA-induced responses recorded in intact chick retina (eyecup, optic nerve DC potential); format: cell-based; settings: APV 100 μM
Description: Eyecups were obtained from 2-to 5-day-old chicks and continuously superfused at 20-25° C. at a rate of 8 ml/min with Tyrodes solution (130 mM NaCl, 3 mM KCl, 17 mM dextrose, 20 mM NaHCO3, 0.01% w/v phenol red; bubbled with a gas mixture of 95% O2 and 5% CO2) containing 5 mM MgCl2 to reduce synaptic activity. […] Traces were triggered by the opening of two solenoid valves that shunted approximately 200 μl of agonist (1, 1-dimethyl-4-phenyl-piperazinium iodide, DMPP or NMDA) into the perfusion line, Agonists reached the preparation approximately 7s later. […] Some experiments were performed in the presence of 10 μg/ml catalase and 1 μg/ml superoxide dismutase. Antagonists, reducing agents, or oxidizing agents were introduced directly via the perfusate.

retinal ganglion cells = test: Survival of retinal ganglion cells exposed to glutamate (NMDA neurotoxicity); format: cell-based, rat; settings: for NMDA receptor-mediated neurotoxicity / neuronal cell injury: oxidized DTT produced from reduced DTT with DTNB
Description: To investigate the influence of redox modulation on NMDA neurotoxicity, survival of an identified central neuron, the retinal ganglion cell, was monitored for 12-24 hr after a brief (5-10 min.) exposure to DTT. To determine the degree of killing specifically related to activation of the NMDA receptor, APV at 200 μM was added to sibling cultures. APV-preventable, glutamate-induced death was increased 70±9% with DTT treatment.
Retinal ganglion cell neurons were labeled in situ, dissociated from the retina, and cultured as follows. Retinal ganglion cells from 7- to 12-day-old Long-Evans rats were labeled and enzymatically dissociated as described by Leifer et al., Science 224: 303, 1984. Following rinse of the dissociated retinal cells with a physiological saline based on Hanks' salts (composition in mM: NaCl, 137; NaHCO3, 1; Na2HPO4, 0.34; KCl, 5,36; KH2PO4, 0.44; CaCl2, 1.25, MgSO4, 0.5; MgCl2, 0.5; N-2-hydroxyethyl-piperazine-N′-2-ethanesulfonic acid (HEPES), 5; dextrose, 22.2; Phenol Red, 0.001% v/v; adjusted to pH 7.2 with 0.3 M NaOH), the cells were mechanically dispersed and aliquoted to treatment vials. These vials contained control saline solution, or saline solution with either 0.5-2 mM DTT, or 0.5 mM DTT in the presence of 1 mM DTNB. Treatment groups with DTNB were readjusted to pH 7.2 with 0.3 M NaOH. Cells were agitated gently over a 5-10 min period. After treatment, 100 μl volumes of the cell suspension were plated onto glass coverslips coated with poly-L-lysine in 35×10 mm tissue-culture dishes containing 2 ml of culture medium. The cell culture medium was based on Eagle's minimum essential medium (MEM), modified so that it was nominally free of magnesium and contained 10 mM CaCl2 to enhance NMDA receptor-mediated neuro-toxicity. The medium was also supplemented with methylcellulose 0.7% w/v, gentamicin 1 μg/ml, dextrose 16 mM, and rat serum 5% v/v. Glutamate levels in the culture medium were monitored by HPLC analysis. Concentrations of glutamate added to the medium of each experiment to induce cell killing averaged 10 μM (day to day variability in neuronal cell death was most probably due to slight variations in the amount of endogenous glutamate or a glutamate-like substance in these cultures). The 100 μl aliquots of cell suspension diluted into the 2 ml of MEM produced a final concentration of 50 μM Mg^2+, as well as levels of DTT and DTNB at 5% of their initial treatment concentrations. The cell cultures were incubated for 12-24 hours at 37° C. in an atmosphere of 5% CO2/95% humidified air. Neuronal survival was then scored by counting retinal ganglion cells displaying uptake and cleavage of fluorescein diacetate to fluorescein, as described by Hahn et al. Proc. Nat. Acad. Sci. USA 85:6556, 1988.
Experiments were conducted in triplicate and repeated on eleven separate days. In order to compare results obtained on different days, data were normalized such that the total number of surviving neurons in a given experiment divided by the number of treatment categories (i.e., 4) equalled 100.
Retinal cells were cultured as described in Example 1. In these experiments transient exposure to the reduced form of DTT (500 μM) occurred in the presence of DTNB (1 mM).

NMDA receptors = settings: 0.5-10 mM

## NC(CCCP(=O)(O)O)C(=O)O (stereo not shown) [APV, 2-amino-5-phosphonovalerate]
NMDA receptor
  NMDA-induced responses in native and reduced states: blocked NMDA-induced responses
Retinal ganglion cells; 200 μM APV after DTT treatment
  vulnerability of neurons despite DTT treatment: could be blocked
Retinal ganglion cells; APV 200 μM, DTT transient exposure, 12-24 hr
  death of retinal ganglion cells exposed to glutamate in the culture medium: prevented the death
Retinal ganglion cells; DTT 500 μM in the presence of DTNB 1 mM, APV cultures P<0.01
  neuronal survival compared to baseline: significantly greater than baseline

## O[C@H]1CSSC[C@@H]1O [oxidized DTT, oxidized dithiotheritol]
Retinal ganglion cells
  NMDA receptor-mediated neurotoxicity / neuronal cell injury: does not effect neuronal cell injury
Retinal ganglion cells; listed as oxidized dithiotheritol (DTT)
  NMDA receptor-mediated neurotoxicity / neuronal cell injury: does not significantly affect

## N[C@@H](CCC(=O)N[C@@H](CS)C(=O)NCC(=O)O)C(=O)O [reduced glutathione, glutathione]
NMDA receptors
  protection against toxicity mediated at NMDA receptors: can protect
